Measurements taken from publication PMC4224572, “Peptidomimetic inhibitors of N-myristoyltransferase from human malaria and leishmaniasis parasites” (Organic & Biomolecular Chemistry, 2014).
Square brackets hold non-standard residues; d marks the D form. Peptide text beside a SMILES is read from it. Aun = NCCCCCCCCCCC(=O)O; Aoc = NCCCCCCCC(=O)O

Assays:
LdNMT = test: Fluorogenic NMT inhibition assay, LdNMT; format: biochemical, L. donovani; settings: for IC50: recombinant enzyme, mean of duplicate or triplicate experiments
Source text: (§1) 2-Methylimidazolyl analogues were synthesized building on the hypothesis that 2-methylimidazole (pK a ∼ 7.9)[18] is a reasonable mimetic for N-terminal Gly in the peptide substrate (pK a ∼ 8.0).[19] To cover a range of basicity, imidazolyl (pK a ∼ 7.0) and amine analogues (pK a ∼ 10.0) were also synthesized, each exploring a range of chain lengths (n) (Table 1). To probe versatility at the C-terminus, primary amides, carboxylic acids, 2-cyclohexylethyl and 2-(1-cyclohexenyl)ethyl amides were incorporated. Using a previously reported fluorogenic assay,[20] inhibitors were tested against the parasitic enzymes and HsNMT1 in order to explore their selectivity against a relevant host enzyme. […] Further reduction of the chain length (11 and 12, n = 8 and 7, respectively) led to loss of detectable activity against Plasmodium NMTs and significant loss of activity against LdNMT and HsNMT1.

PvNMT = target: T1, PvNMT (Plasmodium vivax, UniProt A5K1A2); test: Fluorogenic NMT inhibition assay, PvNMT; format: biochemical; settings: recombinant enzyme; mean of duplicate or triplicate experiments
T1 sequence (A5K1A2 1-410): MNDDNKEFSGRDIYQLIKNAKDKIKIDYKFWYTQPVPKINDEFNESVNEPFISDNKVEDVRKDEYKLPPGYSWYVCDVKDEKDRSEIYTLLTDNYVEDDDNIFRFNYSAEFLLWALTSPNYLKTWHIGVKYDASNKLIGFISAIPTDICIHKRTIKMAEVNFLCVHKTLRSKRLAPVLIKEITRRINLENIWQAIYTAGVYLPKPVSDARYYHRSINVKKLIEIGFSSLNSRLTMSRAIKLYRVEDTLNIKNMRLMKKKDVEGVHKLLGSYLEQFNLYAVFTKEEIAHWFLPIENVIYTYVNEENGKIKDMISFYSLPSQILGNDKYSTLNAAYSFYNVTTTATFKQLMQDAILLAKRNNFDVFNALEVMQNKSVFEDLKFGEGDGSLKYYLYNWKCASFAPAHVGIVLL
Source text: as §1

HsNMT1 = target: T2, HsNMT1 (Homo sapiens, UniProt P30419); test: Fluorogenic NMT inhibition assay, HsNMT1; format: biochemical, H. sapiens; settings: for IC50: mean of duplicate or triplicate experiments
T2 sequence (P30419 1-496): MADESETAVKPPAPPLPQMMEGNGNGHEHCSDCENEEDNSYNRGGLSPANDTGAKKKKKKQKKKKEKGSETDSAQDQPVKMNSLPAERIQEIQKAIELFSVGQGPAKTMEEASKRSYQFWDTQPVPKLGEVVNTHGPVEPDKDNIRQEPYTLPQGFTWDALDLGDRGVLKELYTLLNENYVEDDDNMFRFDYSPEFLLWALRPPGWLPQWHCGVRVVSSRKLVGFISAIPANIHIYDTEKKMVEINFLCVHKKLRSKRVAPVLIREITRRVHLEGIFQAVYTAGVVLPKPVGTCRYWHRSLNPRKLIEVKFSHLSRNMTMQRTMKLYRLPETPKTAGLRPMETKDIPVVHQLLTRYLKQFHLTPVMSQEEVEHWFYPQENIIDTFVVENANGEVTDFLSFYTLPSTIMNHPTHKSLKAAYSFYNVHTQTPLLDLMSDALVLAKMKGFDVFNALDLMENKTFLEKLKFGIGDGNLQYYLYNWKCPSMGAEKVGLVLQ
Source text: 2-Methylimidazolyl analogues were synthesized building on the hypothesis that 2-methylimidazole (pK a ∼ 7.9)[18] is a reasonable mimetic for N-terminal Gly in the peptide substrate (pK a ∼ 8.0).[19] To cover a range of basicity, imidazolyl (pK a ∼ 7.0) and amine analogues (pK a ∼ 10.0) were also synthesized, each exploring a range of chain lengths (n) (Table 1). To probe versatility at the C-terminus, primary amides, carboxylic acids, 2-cyclohexylethyl and 2-(1-cyclohexenyl)ethyl amides were incorporated. Using a previously reported fluorogenic assay,[20] inhibitors were tested against the parasitic enzymes and HsNMT1 in order to explore their selectivity against a relevant host enzyme.

PfNMT = target: T3, PfNMT (Plasmodium falciparum, UniProt Q9U419); test: Fluorogenic NMT inhibition assay, PfNMT; format: biochemical; settings: recombinant enzyme; mean of duplicate or triplicate experiments
T3 sequence (Q9U419 1-410): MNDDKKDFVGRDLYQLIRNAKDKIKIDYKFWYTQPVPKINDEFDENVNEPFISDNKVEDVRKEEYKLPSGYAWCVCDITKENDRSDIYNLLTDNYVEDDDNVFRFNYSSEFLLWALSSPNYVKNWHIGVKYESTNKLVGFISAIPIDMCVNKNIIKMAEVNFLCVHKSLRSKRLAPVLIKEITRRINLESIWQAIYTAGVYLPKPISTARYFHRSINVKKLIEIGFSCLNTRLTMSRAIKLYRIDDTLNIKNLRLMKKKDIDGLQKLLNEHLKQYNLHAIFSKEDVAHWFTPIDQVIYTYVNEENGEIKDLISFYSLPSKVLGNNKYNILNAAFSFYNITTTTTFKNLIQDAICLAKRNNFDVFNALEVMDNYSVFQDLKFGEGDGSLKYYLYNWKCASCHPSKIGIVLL
Source text: as §1

Leishmania NMT = test: Substrate characteristics in Leishmania NMT; format: biochemical; settings: for Km: read-out: KM as substrate; for substrate activity: compound 10 tested up to 40 μM
Experimental: Unexpectedly, the electron maps indicated a mixture of ligand structures such that ∼20% of the electron density represents a N-myristoylated 10 product complex with the CoA by-product in LmNMT (Fig. 2D). This is the only structural evidence for a product complex in any N-myristoyltransferase, and captures and supports the proposed mechanism of action of NMT just prior to regeneration of the active enzyme. Kinetic experiments were performed to study 10 both as a potential substrate and as an NMT inhibitor. […] The N-myristoylation of 10 observed above therefore presumably occurs within the crystal where all reagents are present at high effective concentrations, and turnover is blocked by limited egress of products.
To probe the degree to which 10 acts as a true peptidomimetic, we investigated the potential to switch from inhibitor to a peptidomimetic substrate. […] In native NMT substrates, N-terminal Gly is preferred to the exclusion of all other residues, with relatively non-sterically demanding residues such as alanine. […]
[Substrate] (µM) [S b[Substrate] (µM) tt ]
Hs pp60src(2-9) Compound 10 Compound 27 Compound 28
Figure S4: Substrate characteristics of H. sapiens p60src(2-16), compound 10 and modified
inhibitors 27 and 28 in Leishmania NMT.

[1] = hydroxyl substituted for the N-terminal amine

| Molecule | IC50 (LdNMT) | IC50 (PvNMT) | IC50 (HsNMT1) | IC50 (PfNMT) | loss in activity, Human NMT (HsNMT1; [1]) | Vmax as substrate (Leishmania NMT; Leishmania NMT) | Km (Leishmania NMT; Leishmania NMT) | substrate activity (Leishmania NMT) | KM as substrate (Leishmania NMT; Leishmania NMT) | loss in activity, Leishmania NMT (LdNMT; [1]) |
| --- | --- | --- | --- | --- | --- | --- | --- | --- | --- | --- |
| NCCCC[C@H](NC(=O)[C@H](CO)NC(=O)CCCCCCCCCCn1ccnc1)C(=O)NCCC1=CCCCC1 [Compound 17] | > 100 µM | > 100 µM | > 100 µM | > 100 µM |  |  |  |  |  |  |
| NCCCC[C@H](NC(=O)[C@H](CO)NC(=O)CCCCCCCCCn1ccnc1)C(=O)NCCC1=CCCCC1 [Compound 18] | > 100 µM | > 100 µM | > 100 µM | > 100 µM |  |  |  |  |  |  |
| Cc1nccn1CCCCCCCCCCC(=O)N[C@@H](CO)C(=O)N[C@@H](CCCCN)C(=O)NCCC1=CCCCC1 [Compound 19] | > 100 µM | > 100 µM | > 100 µM | > 100 µM |  |  |  |  |  |  |
| Cc1nccn1CCCCCCCCCC(=O)N[C@@H](CO)C(=O)N[C@@H](CCCCN)C(=O)NCCC1=CCCCC1 [Compound 20] |  | > 100 µM | > 100 µM | > 100 µM |  |  |  |  |  |  |
| NCCCCCCCCCCC(=O)N[C@@H](CO)C(=O)N[C@@H](CCCCN)C(N)=O [Compound 21] (H-[Aun]-Ser-Lys-NH2) | 13.3 ± 2 µM | > 100 µM | 5.4 ± 0.41 µM | > 100 µM |  |  |  |  |  |  |
| NCCCCCCCCCC(=O)N[C@@H](CO)C(=O)N[C@@H](CCCCN)C(N)=O [Compound 22] | 1.36 ± 0.2 µM | 22.9 ± 3.5 µM | 1.36 ± 0.29 µM | > 100 µM |  |  |  |  |  |  |
| NCCCC[C@H](NC(=O)[C@H](CO)NC(=O)CCCCCCNC(=O)CN)C(=O)NCCC1CCCCC1 [Compound 27] |  |  |  |  |  | 6596.4 ± 281.4 RFU.s-1 | 1.3 µM | substrate |  |  |
| C[C@H](N)C(=O)NCCCCCCC(=O)N[C@@H](CO)C(=O)N[C@@H](CCCCN)C(=O)NCCC1CCCCC1 [Compound 28] |  |  |  |  |  | Not measurable |  | no detectable substrate activity | Not measurable |  |
| GSNKSKPK-NH2 [reference compound] |  |  |  |  |  | 113616.7 ± 3962.0 RFU.s-1 | 22.6 µM |  |  |  |

Now from value to molecule, other results behind:

| IC50 (LdNMT) | IC50 (PvNMT) | IC50 (HsNMT1) | IC50 (PfNMT) | loss in activity, Human NMT (HsNMT1; [1]) | Molecule | Vmax as substrate (Leishmania NMT; Leishmania NMT) | Km (Leishmania NMT; Leishmania NMT) | substrate activity (Leishmania NMT) | KM as substrate (Leishmania NMT; Leishmania NMT) | loss in activity, Leishmania NMT (LdNMT; [1]) |
| --- | --- | --- | --- | --- | --- | --- | --- | --- | --- | --- |
| 27.1 ± 2.6 µM | > 100 µM | 33.1 ± 2.5 µM | > 100 µM |  | NCCCCCCCCC(=O)N[C@@H](CO)C(=O)N[C@@H](CCCCN)C(N)=O [Compound 23] |  |  |  |  |  |
| 61.9 ± 4.7 µM | > 100 µM | > 100 µM | > 100 µM |  | NCCCCCCCC(=O)N[C@@H](CO)C(=O)N[C@@H](CCCCN)C(N)=O [Compound 24] (H-[Aoc]-Ser-Lys-NH2) |  |  |  |  |  |
| 86.7 ± 10.4 µM | > 100 µM | 39.2 ± 2 µM | > 100 µM |  | NCCCCCCCCCCC(=O)N[C@@H](CO)C(=O)N[C@@H](CCCCN)C(=O)O [Compound 25] (H-[Aun]-Ser-Lys-OH) |  |  |  |  |  |
| > 100 µM | > 100 µM | 92.1 ± 17.6 µM | > 100 µM |  | NCCCCCCCCCC(=O)N[C@@H](CO)C(=O)N[C@@H](CCCCN)C(=O)O [Compound 26] |  |  |  |  |  |
|  |  |  |  | 1000 folds | NCCCC[C@H](NC(=O)[C@H](CO)NC(=O)CCCCCCCCCO)C(=O)NCCC1CCCCC1 [Compound 46] |  |  |  |  | > 100 folds |
